Results on 14 compounds are retold here after patent US8901314B2, “Substituted pyrazoles as N-type calcium channel blockers” (Janssen Pharmaceutica NV, priority 2012, dated 2014).

Assay [1] relates to Cav2.2 (N-type calcium channel; α1B, α2δ and β3 subunits stably expressed in HEK293 cells). The experiment in a line: Automated electrophysiology assay (QPatch-HT patch clamp). The class given is cell-based. The conditions noted are these: 0.1 μM; for QPatch % Inhibition, High Freq: high frequency stimulation (15th pulse of 5 Hz train); for QPatch % Inhibition, Low Freq: low frequency stimulation (1st pulse of train). The procedure: The Cav2.2 (α1B) subunit (GenBank accession no. AAO53230; supplied by Lipscombe's laboratory at Brown University) was subcloned into pcDNA3.1, whereas the α2δ (M86621) and β3 (M88751) subunits were subcloned into pBudCE4.1 vectors. Stable cell lines expressing all three subunits were generated according to the following procedure: 1) HEK293 cells were transfected with α2δ−1/β3 expression constructs resulting in a stable cell line expressing α2δ−1 and β3 subunits that were selected under 200 μg/mL of Zeocin; 2) a stable cell line expressing α2δ−1/β3 subunits in high quantity as evidenced in its Western blots was isolated from the colony and purified; 3) this cell line was further transfected with Cav2.2 expression constructs, from which cells were subsequently selected under 400 μg/mL G418 and 200 μg/mL Zeocin; 4) these cells were clonally isolated, expanded and screened by Western blot analysis for expressing all three subunits
Cultures of cells stably expressing Cav2.2 were maintained at 37° C. in low glucose-containing Dulbecco's Modified Eagle medium (low glucose) under a 5% CO2 atmosphere. The medium was supplemented with 10% fetal bovine serum, 2 mM L-glutamine, 100 IU/mL penicillin, […] streptomycin, 400 μg/mL G418 and 200 μg/mL Zeocin.
High-throughput automated patch clamp system experiments were carried out using instruments (QPatch-HT) available from Sophion Biosciences, Inc. North Brunswick, N.J. Cells were grown in T175 flasks to 50%-90% confluence were enzymatically treated with Deatchin (Genlantis, San Diego, Calif., U.S.A.), centrifuged, rinsed and resuspended in 293 SFM II media (Life Technologies, Grand Island, N.Y., U.S.A.) supplemented with 25 mM HEPES (Sigma-Aldrich, St. Louis, Mo., U.S.A.) to a concentration of 2−3×10^6 cells/mL. Cells were added to automated cell preparation station on the QPatch-HT (Sophion Biosciences, North Brunswick, N.J., U.S.A.) and following a 10- to 30-min recovery period with gentle stirring, the assay protocol was initiated. During the automated cell preparation, cells were collected, centrifuged and resuspended in an extracellular (EC) solution containing 132 mM NaCl, 1.8 mM CaCl2, 5.4 mM KCl, 0.8 mM MgCl2, 10 mM glucose, and 10 mM HEPES (pH=7.4), adjusted with sucrose to 315 m0sm. The QPlate was primed with an intracellular solution containing 135 CsCl, 10 mM EGTA, 4 MgATP, 0.3 NaGTP, and 20 mM HEPES (pH=7.2), adjusted to approximately 290 m0sm with deionized water and the EC solution. Cells were added to the prepared QPlate wells by robotic pipettes of the QPatch-HT.
For cells determined to be in stable whole-cell patch clamp, the EC solution was replaced with a barium (Ba)/triethylammonium (TEA) solution containing 140 mM TEA-Cl, 10 mM BaCl2, 0.8 mM MgCl2, 10 mM glucose, and 10 mM HEPES (pH=7.4). High (40 mM) BaCl2 concentrations were made with adjustments of TEA-Cl (90 mM) to maintain the osmolarity. From a resting potential of −80 mV, a train of depolarizing pulses (15 pulses at 5 Hz, +20 mV) was delivered to the cell once every 30 sec for eight trains (4 min total), and the resulting currents were measured during a control period (no compound). This protocol was repeated for each subsequent addition of control buffer with or without compound (three periods total, each with four trains). The current generated in the 1st and 15th pulses of the last train of each period in the presence of each drug concentration was normalized to the current generated during the control period at the respective pulses (representing low- and high frequency stimulation, respectively). Data from both the second and third drug application period were analyzed for each cell. A final addition of Ba/TEA solution containing 60-100 uM CdCl2 was made to block all N-type current and “zero” the currents for each cell. A buffer/compound additions were made using a “spitting” feature of the QPatch-HT, which added three repretitions of 5 μL solution at the beginning of each recording period.

Assay [2] concerns the target α1B (Cav2.2), β3 and α2δ subunits of the N-type calcium channel (stable HEK cell line) (Rattus norvegicus, UniProt Q02294). The experiment in a line: Calcium-dye indicator assay (FDSS, KCl depolarization). The class given is cell-based. The note with it: calcium mobilization response to 50 mM KCl; six-point concentration-response. The procedure: A stable cell line (HEK parent) co-expressing the α1B (Cav2.2), β3 and α2δ subunits of the N-type calcium channel subunits was used. These cells were routinely grown as monolayers in low glucose-containing Dulbecco's Modified Eagle Medium supplemented with 10% FBS, 2 mM L-glutamine, 100 I.U./mL penicillin, 100 μg/mL streptomycin, 400 μg/mL G418 and 200 μg/mL Zeocin (split ratio=1:5). Cells were maintained in 5% CO2 at 37° C. Compounds of Formula (I) were prepared as 10 mM stocks in DMSO from neat compound, if available. Otherwise, the 5 or 10 mM DMSO stock solutions provided in-house were used.
Calcium mobilization responses to KCl depolarization were evaluated by measuring the intensity of calcium-mediated fluorescent signal in the presence of BD Calcium Assay Dye (BD Biosciences, Franklin Lakes, N.J., U.S.A.), utilizing a Functional Drug Screening System (FDSS) by Hamamatsu Corporation (Bridgewater, N.J., U.S.A.).
Twenty-four hours prior to assay, cells were seeded in clear-base poly-D-lysine coated 384-well plates (BD Biosciences) at a density of 5,000 cells per well in culture medium and grown overnight in 5% CO2 at 37° C. On the day of assay growth media were removed and cells were loaded with BD calcium assay dye (BD Biosciences) for 35 min at 37° C. under 5% CO2 and then for 25 min at room temperature. Utilizing the FDSS, cells were exposed to representative compounds of Formula (I) at varying concentrations and intracellular calcium was measured for 5 min prior to the addition of 50 mM KCl for an additional 3 min of measurement.
Maximal fluorescence intensity (FI) achieved upon addition of 50 mM KCl was exported from the FDSS software and further analyzed using GraphPad Prism 4 (Graph Pad Software Inc., CA, U.S.A.). Data were normalized to the maximum average counts from quadruplicate wells for each condition in the presence of 50 mM KCl and to the minimum average counts in the presence of buffer. Theoretical curves were generated using nonlinear regression curve-fitting analysis of either sigmoidal concentration-response or sigmoidal concentration-response (variable slope), and the IC50 values with the best-fit dose curve determined by GraphPad Prism were reported.

Consider `COc1ccccc1-n1nc(C2C[C@@H](C)O[C@H](C)C2)cc1-c1ccccc1` (relative stereo) [Compound 67, 3-[(trans)-2,6-Dimethyltetrahydro-2H-pyran-4-yl]-1-(2-methoxyphenyl)-5-phenyl-1H-pyrazole], for which, in assay [1], the “QPatch % Inhibition, High Freq” value is recorded as 65% and the “QPatch % Inhibition, Low Freq” value was 55%. Also, the IC50 in assay [2] worked out at 12 nM.
For `COc1ccccc1-n1nc(C2=C[C@H](C)O[C@@H](C)C2)cc1-c1ccc(Cl)cc1` (relative stereo) [Compound 96, 5-(4-Chlorophenyl)-3-[(trans)-2,6-dimethyl-3,6-dihydro-2H-pyran-4-yl]-1-(2-methoxyphenyl)-1H-pyrazole], in that order: 29%, −20% and 8.2 nM.
The like results for `COc1ccccc1-n1nc(C2CC(C)(C)OC(C)(C)C2)cc1-c1ccc(Cl)cc1` [Compound 1, 5-(4-Chloro-phenyl)-1-(2-methoxy-phenyl)-3-(2,2,6,6-tetramethyl-tetrahydro-pyran-4-yl)-1H-pyrazole] were, in that order, 63%, 58% and 1.7 nM.
The like results for `COc1ccccc1-n1nc(C2CC(C)(C)OC(C)(C)C2)cc1-c1ccc(C#N)cc1` [Compound 2, 4-[1-(2-Methoxyphenyl)-3-(2,2,6,6-tetramethyltetrahydro-2H-pyran-4-yl)-1H-pyrazol-5-yl]-benzonitrile] were, in that order, 53.5%, 56.5% and 1.1 nM.
For the compound `COc1ccccc1-n1nc(C2CC(C)(C)OC(C)(C)C2)cc1-c1ccc(Cl)cc1F` [Compound 3, 5-(4-Chloro-2-fluorophenyl)-1-(2-methoxyphenyl)-3-(2,2,6,6-tetramethyltetrahydro-2H-pyran-4-yl)-1H-pyrazole], in assay [1], the “QPatch % Inhibition, High Freq” value was 42% and the “QPatch % Inhibition, Low Freq” value worked out at 34%. For the same compound, the IC50 in assay [2] amounted to 1 nM.
For `COc1ccccc1-n1nc(C2CC(C)(C)OC(C)(C)C2)cc1-c1ccc2c(c1)OCO2` [Compound 4, 5-(1,3-Benzodioxol-5-yl)-1-(2-methoxyphenyl)-3-(2,2,6,6-tetramethyltetrahydro-2H-pyran-4-yl)-1H-pyrazole], in that order: 39%, 35% and 1 nM.
The like results for `COc1ccc(-c2cc(C3CC(C)(C)OC(C)(C)C3)nn2-c2ccccc2OC)cc1` [Compound 5, 1-(2-Methoxyphenyl)-5-(4-methoxyphenyl)-3-(2,2,6,6-tetramethyltetrahydro-2H-pyran-4-yl)-1H-pyrazole] were, in that order, 67%, 59% and 1.3 nM.
`COc1ccccc1-n1nc(C2CC(C)(C)OC(C)(C)C2)cc1-c1ccc(SC)cc1` [Compound 6, 1-(2-Methoxyphenyl)-5-[4-(methylsulfanyl)phenyl]-3-(2,2,6,6-tetramethyltetrahydro-2H-pyran-4-yl)-1H-pyrazole]: in assay [1], the “QPatch % Inhibition, High Freq” value is recorded as 48% and the “QPatch % Inhibition, Low Freq” value turned out to be 48%. Besides, in assay [2], the concentration for half-maximal inhibition (IC50) is 1.1 nM.
As to `COc1ccccc1-n1nc(C2CC(C)(C)OC(C)(C)C2)cc1C1=CCC(C)(C)CC1` [Compound 8, 5-(4,4-Dimethylcyclohex-1-en-1-yl)-1-(2-methoxyphenyl)-3-(2,2,6,6-tetramethyltetrahydro-2H-pyran-4-yl)-1H-pyrazole], in assay [1], the “QPatch % Inhibition, High Freq” value amounted to 40% and the “QPatch % Inhibition, Low Freq” value was determined as 37%. The concentration for half-maximal inhibition (IC50) in assay [2] was 1.6 nM.
The like results for `CCOc1ccc(-c2cc(C3CC(C)(C)OC(C)(C)C3)nn2-c2ccccc2OC)cc1` [Compound 9, 5-(4-Ethoxyphenyl)-1-(2-methoxyphenyl)-3-(2,2,6,6-tetramethyltetrahydro-2H-pyran-4-yl)-1H-pyrazole] were, in that order, 47.5%, 34% and 2.3 nM.
For `COc1ccccc1-n1nc(C2CC(C)(C)OC(C)(C)C2)cc1-c1ccc(C)cc1` [Compound 10, 1-(2-Methoxyphenyl)-5-(4-methylphenyl)-3-(2,2,6,6-tetramethyltetrahydro-2H-pyran-4-yl)-1H-pyrazole], in that order: 38%, 46% and 2 nM.
Consider `COc1ccccc1-n1nc(C2CC(C)(C)OC(C)(C)C2)cc1-c1ccc(C(C)=O)cc1` [Compound 12, 1-{4-[1-(2-Methoxyphenyl)-3-(2,2,6,6-tetramethyltetrahydro-2H-pyran-4-yl)-1H-pyrazol-5-yl]phenyl}ethanone], for which, in assay [1], the “QPatch % Inhibition, High Freq” value is recorded as 41% and the “QPatch % Inhibition, Low Freq” value was determined as 30%. Moreover, in assay [2], the IC50 was 2.6 nM.
Take `COc1ccc(-c2cc(C3CC(C)(C)OC(C)(C)C3)nn2-c2ccccc2OC)cn1` [Compound 13, 2-Methoxy-5-[1-(2-methoxyphenyl)-3-(2,2,6,6-tetramethyltetrahydro-2H-pyran-4-yl)-1H-pyrazol-5-yl]pyridine]: in assay [1], the “QPatch % Inhibition, High Freq” value was found to be 47.5% and the “QPatch % Inhibition, Low Freq” value is listed as 32%. Also, in assay [2], the IC50 is 4.9 nM.
The like results for `COc1ccccc1-n1nc(C2CC(C)(C)OC(C)(C)C2)cc1-c1ccc(Cl)s1` [Compound 14, 5-(5-Chlorothiophen-2-yl)-1-(2-methoxyphenyl)-3-(2,2,6,6-tetramethyltetrahydro-2H-pyran-4-yl)-1H-pyrazole] were, in that order, 74.5%, 63% and 6.2 nM.
